Laboratory results: patent US7482344B2, “Tricyclic steroid hormone nuclear receptor modulators” (Eli Lilly and Company, priority 2003, dated 2009)

Each compound was assayed against T1, MR (Homo sapiens, UniProt P08235) (assay: Mineralocorticoid Receptor Binding Assay (Method 1), [3H]-aldosterone competition). Details: human MR expressed in Sf9 cells, 0.5 nM [3H]-aldosterone.
T1 sequence (P08235 1-984): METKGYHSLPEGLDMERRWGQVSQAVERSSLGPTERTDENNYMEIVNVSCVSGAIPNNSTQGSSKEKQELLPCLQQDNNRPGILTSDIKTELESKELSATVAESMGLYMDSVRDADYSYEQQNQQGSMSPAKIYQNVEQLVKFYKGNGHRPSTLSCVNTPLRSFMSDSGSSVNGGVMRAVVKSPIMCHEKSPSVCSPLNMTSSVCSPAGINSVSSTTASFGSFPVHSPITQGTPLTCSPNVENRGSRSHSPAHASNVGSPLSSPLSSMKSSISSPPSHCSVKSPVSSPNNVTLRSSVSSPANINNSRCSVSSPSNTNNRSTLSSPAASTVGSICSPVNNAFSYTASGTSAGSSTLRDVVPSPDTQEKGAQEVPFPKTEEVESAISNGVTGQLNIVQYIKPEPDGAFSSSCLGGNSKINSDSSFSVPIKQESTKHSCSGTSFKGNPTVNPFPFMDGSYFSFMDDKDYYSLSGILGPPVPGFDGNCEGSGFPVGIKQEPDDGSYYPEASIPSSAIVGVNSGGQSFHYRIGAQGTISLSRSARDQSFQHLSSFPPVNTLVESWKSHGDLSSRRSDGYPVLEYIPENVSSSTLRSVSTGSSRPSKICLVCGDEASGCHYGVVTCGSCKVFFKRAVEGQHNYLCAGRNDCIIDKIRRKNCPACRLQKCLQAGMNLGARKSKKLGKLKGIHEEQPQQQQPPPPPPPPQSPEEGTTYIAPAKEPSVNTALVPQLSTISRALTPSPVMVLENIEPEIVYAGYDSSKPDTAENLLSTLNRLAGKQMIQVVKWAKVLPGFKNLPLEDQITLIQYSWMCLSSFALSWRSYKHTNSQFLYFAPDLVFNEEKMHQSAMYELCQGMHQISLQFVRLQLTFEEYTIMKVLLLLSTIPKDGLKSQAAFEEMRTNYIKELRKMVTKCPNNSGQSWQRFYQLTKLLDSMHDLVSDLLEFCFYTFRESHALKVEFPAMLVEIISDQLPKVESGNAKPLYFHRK
Set-up: The full length human MR gene is cloned from a human kidney or human brain cDNA library; made in house; host or cells: SF9 insect cells (pAcHLT baculovirus transfer vector)
Method: Mineralocorticoid Receptor Binding Assay (Method 1):
The full length human MR gene is cloned from a human kidney or human brain cDNA library. Briefly, using synthetic oligonucleotide primers (Eli Lilly and Company, Indianapolis) directed to nucleotides 20-54 and 3700-3666 of the human MR, polymerase chain reaction (PCR) is performed under standard conditions using a human cDNA library. The PCR reaction is performed in a final volume of 50 μl containing about 1μl of a 50× stock solution of polymerase; about 1 μl of a 50× stock solution of dNTP; about 5μl of an appropriate PCR buffer; about 1 μl of each primer; about 5 μl of a H. kidney or H. brain cDNA library; and about 36 μl of water. The reaction is allowed to denature for about 30 seconds at 95 degrees Celsius, anneal for about 30 seconds at 55 degrees Celsius, and extend for about 5 minutes at 72 degrees Celsius, the sequence being repeated for a total of about 35 cycles. The desired PCR product (3.68 Kb) is confirmed by gel electrophoresis and subsequently cut from the gel and stored at about −20 degrees Celsius until extraction. To extract the cDNA product from the agarose gel, the QIAEX II Gel Extraction protocol (QIAGEN, Inc.) is employed according to the manufacturer's instructions. Following extraction, the MR cDNA is cloned into an appropriate cloning vector (Zero Blunt TOPO PCR Cloning Kit (Invitrogen, Inc.) and a pAcHLT-baculovirus transfer vector (B.D./Pharminogen), then expressed in SF9 insect cells, essentially according to manufacturer's instructions. Sf9 cells are grown at a scale where gram quantity cell pellets are obtained for subsequent use in the MR binding assay. Harvested cell pellets are lysed by repeated freeze-thaw cycles (about 4) in a suitable lysis buffer then centrifuged at about 1×10^3G (with the supernatant being saved for future assays).
MR binding assays are performed in a final total volume of about 250 μl containing about 20-25 μg of protein and 0.5 nM of [^3H]-aldosterone plus varying concentrations of test compound or vehicle. The assay binding buffer consists of 30 mM sodium molybdate, 30 mM of TRIS-HCl, 5 mM sodium phosphate, 5 mM sodium pyrophosphate, and about 10% glycerol, pH=7.5.
Briefly, assays are prepared at RT in 96-well Falcon 3072 plates, each well containing 210 μof binding buffer, 10 μl of […], 10 μl of test compound/vehicle, and 20 μl of the resuspended receptor protein extract. Incubations are carried out at 4 degrees Celsius with shaking for about 16 hours. 200 μl aliquots of each incubation are filtered onto Millipore HA 0.45 micron 96-well filter plates, pre-moistened with cold 30 mM TRIS-HCl. The filter plates are suctioned dry with vacuum and immediately washed 3× with cold 30 mM TRIS-HCl. The plates are then punched out and the amount of receptor-ligand complex is determined by liquid scintillation counting using 4 ml of Ready Protein Plus™ liquid scintillation cocktail.
`CC(=C1c2ccccc2Sc2ccccc21)c1cccc(NS(C)(=O)=O)c1` [Example 4, 9-[1-(3-methylsulfonoylaminophenyl)ethylene] thioxanthine] showed a Ki of under 500 nM. `O=c1[nH]c2ccc(C=C3c4ccc(F)cc4Sc4cc(F)ccc43)cc2[nH]1` [Example 5, 5-(3,6-Difluoro-thioxanthen-9-ylidenemethyl)-1,3-dihydro-benzoimidazol-2-one] gave a Ki of under 500 nM. `CC(=C1c2ccccc2Sc2ccccc21)c1cccc(N)c1` [Example 6] showed a Ki of under 500 nM. In the case of `CS(=O)(=O)Nc1cccc(C=C2c3ccccc3Sc3ccccc32)c1` [Example 8], the Ki is reported as under 500 nM. `Nc1cccc(C=C2c3ccccc3Sc3ccccc32)c1` [Example 9] was tested, and the Ki was under 500 nM. With `O=c1[nH]c2ccc(C=C3c4ccccc4Sc4ccccc43)cc2[nH]1` [Example 10] the Ki was under 500 nM. `O=c1[nH]c2cc(C=C3c4ccccc4Sc4ccccc43)ccc2o1` [Example 11] showed a Ki of under 500 nM. In the case of `O=c1[nH]c2cc(C=C3c4ccccc4Sc4ccccc43)ccc2s1` [Example 12], the Ki is reported as under 500 nM. In the case of `O=c1[nH]c2cc(C=C3c4ccccc4Sc4ccccc43)ccc2n1CCN1CCOCC1` [Example 13], the Ki is reported as under 500 nM. Work on `CN1CCN(CCn2c(=O)[nH]c3cc(C=C4c5ccccc5Sc5ccccc54)ccc32)CC1` [Example 14] yielded a Ki of under 500 nM. Work on `Oc1ccccc1C=C1c2ccccc2Sc2ccccc21` [Example 15] yielded a Ki of under 500 nM.
